Measurements: ChEMBL document CHEMBL3817808, “Enlarging the chemical space of anti-leishmanials: a structureactivity relationship study of peptoids against Leishmania mexicana, a causative agent of cutaneous leishmaniasis” (Medchemcomm, 2016)
Non-standard residues stand in square brackets, D forms with d. Residues, ends and D or L forms follow the SMILES beside them. Gly(Nα-4-Cl-benzyl) = O=C(O)CNCc1ccc(Cl)cc1; N(4-F-Bzl)Gly = O=C(O)CNCc1ccc(F)cc1; Gly(N-(CH2)6NH2) = NCCCCCCNCC(=O)O; Gly(N-2-aminoethyl) = NCCNCC(=O)O; N(isopentyl)Gly = CC(C)CCNCC(=O)O; Nspe = C[C@H](NCC(=O)O)c1ccccc1; Nphe = O=C(O)CNCc1ccccc1; NPrGly = CCCNCC(=O)O; Nlys = NCCCCNCC(=O)O

Legend:
Leishmania mexicana [1] = experiment: Antileishmanial activity against Leishmania mexicana MNYC/BZ/62/M379 promastigotes assessed as parasite viability measured after 1 hr by alamarBlue staining based fluorescence analysis; format: functional; conditions: MNYC/BZ/62/M379, 1 h, read-out: ED50 (the source's name)
Leishmania mexicana [2] = experiment: Antileishmanial activity against axenic amastigote form of Leishmania mexicana MNYC/BZ/62/M379 assessed as parasite viability measured after 1 hr by alamarBlue staining based fluorescence analysis; format: functional; conditions: MNYC/BZ/62/M379, 1 h, read-out: ED50 (the source's name)

Row | SMILES | EC50 (Leishmania mexicana [1]) | EC50 (Leishmania mexicana [2])
1 | COc1ccc(CN(CC(N)=O)C(=O)CN(Cc2ccc(OC)cc2)C(=O)CN(CCCCN)C(=O)CN(Cc2ccc(OC)cc2)C(=O)CN(Cc2ccc(OC)cc2)C(=O)CNCCCCN)cc1 | > 100 µM | > 100 µM
2 | C[C@@H](c1ccccc1)N(CC(N)=O)C(=O)CN(C(=O)CN(CCCCCCN)C(=O)CN(C(=O)CN(C(=O)CNCCCCCCN)[C@@H](C)c1ccccc1)[C@@H](C)c1ccccc1)[C@@H](C)c1ccccc1 | > 100 µM | > 100 µM
3 | COc1ccc(CN(CC(N)=O)C(=O)CN(Cc2ccc(OC)cc2)C(=O)CN(CCCCN)C(=O)CN(Cc2ccc(OC)cc2)C(=O)CN(Cc2ccc(OC)cc2)C(=O)CN(CCCCN)C(=O)CN(Cc2ccc(OC)cc2)C(=O)CN(Cc2ccc(OC)cc2)C(=O)CNCCCCN)cc1 | > 100 µM | > 100 µM
4 | C[C@@H](c1ccccc1)N(CC(N)=O)C(=O)CN(C(=O)CN(CCCCN)C(=O)CN(Cc1ccc(F)cc1)C(=O)CN(Cc1ccc(F)cc1)C(=O)CNCCCCN)[C@@H](C)c1ccccc1 | > 100 µM | > 100 µM
5 | NCCCCNCC(=O)N(CC(=O)N(CC(=O)N(CCCCN)CC(=O)N(CC(=O)N(CC(=O)N(CCCCN)CC(=O)N(CC(=O)N(CC(N)=O)Cc1cccc(F)c1)Cc1cccc(F)c1)Cc1cccc(F)c1)Cc1cccc(F)c1)Cc1cccc(F)c1)Cc1cccc(F)c1 | 17 µM | > 100 µM
6 | COc1ccc(CN(CC(N)=O)C(=O)CN(Cc2ccc(OC)cc2)C(=O)CN(CCCCN)C(=O)CN(Cc2ccc(OC)cc2)C(=O)CN(Cc2ccc(OC)cc2)C(=O)CN(CCCCN)C(=O)CN(Cc2ccc(OC)cc2)C(=O)CN(Cc2ccc(OC)cc2)C(=O)CN(CCCCN)C(=O)CN(Cc2ccc(OC)cc2)C(=O)CN(Cc2ccc(OC)cc2)C(=O)CNCCCCN)cc1 | 42 µM | > 100 µM
7 | NCCCCNCC(=O)N(CC(=O)N(CC(=O)N(CCCCN)CC(=O)N(CC(=O)N(CC(=O)N(CCCCN)CC(=O)N(CC(=O)N(CC(N)=O)Cc1ccccc1)Cc1ccccc1)Cc1ccccc1)Cc1ccccc1)Cc1ccccc1)Cc1ccccc1 | > 100 µM | > 100 µM
8 | C[C@@H](c1ccccc1)N(CC(N)=O)C(=O)CN(C(=O)CN(CCN)C(=O)CN(C(=O)CN(C(=O)CNCCN)[C@@H](C)c1ccccc1)[C@@H](C)c1ccccc1)[C@@H](C)c1ccccc1 | > 100 µM | > 100 µM
9 | C[C@@H](c1ccccc1)N(CC(N)=O)C(=O)CN(Cc1ccc(F)cc1)C(=O)CN(CCCCN)C(=O)CN(C(=O)CN(Cc1ccc(F)cc1)C(=O)CNCCCCN)[C@@H](C)c1ccccc1 | > 100 µM | > 100 µM
10 | NCCCCNCC(=O)N(CC(=O)N(CC(=O)N(CCCCN)CC(=O)N(CC(=O)N(CC(=O)N(CCCCN)CC(=O)N(CC(=O)N(CC(=O)N(CCCCN)CC(=O)N(CC(=O)N(CC(N)=O)Cc1cccc(F)c1)Cc1cccc(F)c1)Cc1cccc(F)c1)Cc1cccc(F)c1)Cc1cccc(F)c1)Cc1cccc(F)c1)Cc1cccc(F)c1)Cc1cccc(F)c1 | 14 µM | 69 µM
11 | NCCCCNCC(=O)N(CC(=O)N(CC(=O)N(CCCCN)CC(=O)N(CC(=O)N(CC(N)=O)Cc1cccc(F)c1)Cc1cccc(F)c1)Cc1cccc(F)c1)Cc1cccc(F)c1 | > 100 µM | > 100 µM
12 | NCCNCC(=O)N(CC(=O)N(CC(=O)N(CCN)CC(=O)N(CC(=O)N(CC(N)=O)Cc1ccccc1)Cc1ccccc1)Cc1ccccc1)Cc1ccccc1 (H-[Gly(N-2-aminoethyl)][Nphe][Nphe][Gly(N-2-aminoethyl)][Nphe][Nphe]-NH2) | > 100 µM | > 100 µM
13 | NCCNCC(=O)N(CC(=O)N(CC(=O)N(CCN)CC(=O)N(CC(=O)N(CC(=O)N(CCN)CC(=O)N(CC(=O)N(CC(N)=O)Cc1ccccc1)Cc1ccccc1)Cc1ccccc1)Cc1ccccc1)Cc1ccccc1)Cc1ccccc1 (H-[Gly(N-2-aminoethyl)][Nphe][Nphe][Gly(N-2-aminoethyl)][Nphe][Nphe][Gly(N-2-aminoethyl)][Nphe][Nphe]-NH2) | > 100 µM | > 100 µM
14 | NCCCCCCNCC(=O)N(CC(=O)N(CC(=O)N(CCCCCCN)CC(=O)N(CC(=O)N(CC(N)=O)Cc1ccccc1)Cc1ccccc1)Cc1ccccc1)Cc1ccccc1 (H-[Gly(N-(CH2)6NH2)][Nphe][Nphe][Gly(N-(CH2)6NH2)][Nphe][Nphe]-NH2) | > 100 µM | > 100 µM
15 | NCCCCCCNCC(=O)N(CC(=O)N(CC(=O)N(CCCCCCN)CC(=O)N(CC(=O)N(CC(=O)N(CCCCCCN)CC(=O)N(CC(=O)N(CC(N)=O)Cc1ccccc1)Cc1ccccc1)Cc1ccccc1)Cc1ccccc1)Cc1ccccc1)Cc1ccccc1 (H-[Gly(N-(CH2)6NH2)][Nphe][Nphe][Gly(N-(CH2)6NH2)][Nphe][Nphe][Gly(N-(CH2)6NH2)][Nphe][Nphe]-NH2) | > 100 µM | > 100 µM
16 | NCCCCCCNCC(=O)N(CC(=O)N(CC(=O)N(CCCCCCN)CC(=O)N(CC(=O)N(CC(=O)N(CCCCCCN)CC(=O)N(CC(=O)N(CC(=O)N(CCCCCCN)CC(=O)N(CC(=O)N(CC(N)=O)Cc1ccccc1)Cc1ccccc1)Cc1ccccc1)Cc1ccccc1)Cc1ccccc1)Cc1ccccc1)Cc1ccccc1)Cc1ccccc1 (H-[Gly(N-(CH2)6NH2)][Nphe][Nphe][Gly(N-(CH2)6NH2)][Nphe][Nphe][Gly(N-(CH2)6NH2)][Nphe][Nphe][Gly(N-(CH2)6NH2)][Nphe][Nphe]-NH2) | 21 µM | > 100 µM
17 | C[C@@H](c1ccccc1)N(CC(N)=O)C(=O)CN(C(=O)CN(CCCCCCN)C(=O)CN(C(=O)CN(C(=O)CN(CCCCCCN)C(=O)CN(C(=O)CN(C(=O)CNCCCCCCN)[C@@H](C)c1ccccc1)[C@@H](C)c1ccccc1)[C@@H](C)c1ccccc1)[C@@H](C)c1ccccc1)[C@@H](C)c1ccccc1 (H-[Gly(N-(CH2)6NH2)][Nspe][Nspe][Gly(N-(CH2)6NH2)][Nspe][Nspe][Gly(N-(CH2)6NH2)][Nspe][Nspe]-NH2) | 25 µM | > 100 µM
18 | C[C@@H](c1ccccc1)N(CC(N)=O)C(=O)CN(C(=O)CN(CCCCCCN)C(=O)CN(C(=O)CN(C(=O)CN(CCCCCCN)C(=O)CN(C(=O)CN(C(=O)CN(CCCCCCN)C(=O)CN(C(=O)CN(C(=O)CNCCCCCCN)[C@@H](C)c1ccccc1)[C@@H](C)c1ccccc1)[C@@H](C)c1ccccc1)[C@@H](C)c1ccccc1)[C@@H](C)c1ccccc1)[C@@H](C)c1ccccc1)[C@@H](C)c1ccccc1 (H-[Gly(N-(CH2)6NH2)][Nspe][Nspe][Gly(N-(CH2)6NH2)][Nspe][Nspe][Gly(N-(CH2)6NH2)][Nspe][Nspe][Gly(N-(CH2)6NH2)][Nspe][Nspe]-NH2) | 11 µM | > 100 µM
19 | NCCCCNCC(=O)N(CC(=O)N(CC(=O)N(CCCCN)CC(=O)N(CC(=O)N(CC(N)=O)Cc1ccc(Cl)cc1)Cc1ccc(Cl)cc1)Cc1ccc(Cl)cc1)Cc1ccc(Cl)cc1 (H-[Nlys][Gly(Nα-4-Cl-benzyl)][Gly(Nα-4-Cl-benzyl)][Nlys][Gly(Nα-4-Cl-benzyl)][Gly(Nα-4-Cl-benzyl)]-NH2) | 29 µM | > 100 µM
20 | NCCCCNCC(=O)N(CC(=O)N(CC(=O)N(CCCCN)CC(=O)N(CC(=O)N(CC(=O)N(CCCCN)CC(=O)N(CC(=O)N(CC(N)=O)Cc1ccc(Cl)cc1)Cc1ccc(Cl)cc1)Cc1ccc(Cl)cc1)Cc1ccc(Cl)cc1)Cc1ccc(Cl)cc1)Cc1ccc(Cl)cc1 (H-[Nlys][Gly(Nα-4-Cl-benzyl)][Gly(Nα-4-Cl-benzyl)][Nlys][Gly(Nα-4-Cl-benzyl)][Gly(Nα-4-Cl-benzyl)][Nlys][Gly(Nα-4-Cl-benzyl)][Gly(Nα-4-Cl-benzyl)]-NH2) | 22 µM | 85 µM
21 | NCCCCNCC(=O)N(CC(=O)N(CC(=O)N(CCCCN)CC(=O)N(CC(=O)N(CC(=O)N(CCCCN)CC(=O)N(CC(=O)N(CC(=O)N(CCCCN)CC(=O)N(CC(=O)N(CC(N)=O)Cc1ccc(Cl)cc1)Cc1ccc(Cl)cc1)Cc1ccc(Cl)cc1)Cc1ccc(Cl)cc1)Cc1ccc(Cl)cc1)Cc1ccc(Cl)cc1)Cc1ccc(Cl)cc1)Cc1ccc(Cl)cc1 (H-[Nlys][Gly(Nα-4-Cl-benzyl)][Gly(Nα-4-Cl-benzyl)][Nlys][Gly(Nα-4-Cl-benzyl)][Gly(Nα-4-Cl-benzyl)][Nlys][Gly(Nα-4-Cl-benzyl)][Gly(Nα-4-Cl-benzyl)][Nlys][Gly(Nα-4-Cl-benzyl)][Gly(Nα-4-Cl-benzyl)]-NH2) | 28 µM | 44 µM
22 | NCCCCNCC(=O)N(CC(=O)N(CC(=O)N(CCCCN)CC(=O)N(CC(=O)N(CC(N)=O)Cc1ccc(F)cc1)Cc1ccc(F)cc1)Cc1ccc(F)cc1)Cc1ccc(F)cc1 (H-[Nlys][N(4-F-Bzl)Gly][N(4-F-Bzl)Gly][Nlys][N(4-F-Bzl)Gly][N(4-F-Bzl)Gly]-NH2) | > 100 µM | > 100 µM
23 | NCCCCNCC(=O)N(CC(=O)N(CC(=O)N(CCCCN)CC(=O)N(CC(=O)N(CC(=O)N(CCCCN)CC(=O)N(CC(=O)N(CC(N)=O)Cc1ccc(F)cc1)Cc1ccc(F)cc1)Cc1ccc(F)cc1)Cc1ccc(F)cc1)Cc1ccc(F)cc1)Cc1ccc(F)cc1 (H-[Nlys][N(4-F-Bzl)Gly][N(4-F-Bzl)Gly][Nlys][N(4-F-Bzl)Gly][N(4-F-Bzl)Gly][Nlys][N(4-F-Bzl)Gly][N(4-F-Bzl)Gly]-NH2) | 19 µM | > 100 µM
24 | NCCCCNCC(=O)N(CC(=O)N(CC(=O)N(CCCCN)CC(=O)N(CC(=O)N(CC(=O)N(CCCCN)CC(=O)N(CC(=O)N(CC(=O)N(CCCCN)CC(=O)N(CC(=O)N(CC(N)=O)Cc1ccc(F)cc1)Cc1ccc(F)cc1)Cc1ccc(F)cc1)Cc1ccc(F)cc1)Cc1ccc(F)cc1)Cc1ccc(F)cc1)Cc1ccc(F)cc1)Cc1ccc(F)cc1 (H-[Nlys][N(4-F-Bzl)Gly][N(4-F-Bzl)Gly][Nlys][N(4-F-Bzl)Gly][N(4-F-Bzl)Gly][Nlys][N(4-F-Bzl)Gly][N(4-F-Bzl)Gly][Nlys][N(4-F-Bzl)Gly][N(4-F-Bzl)Gly]-NH2) | 15 µM | 75 µM
25 | CC(C)CCN(CC(=O)N(CC(N)=O)[C@@H](C)c1ccccc1)C(=O)CN(CCCCN)C(=O)CN(C(=O)CN(CCC(C)C)C(=O)CNCCCCN)[C@@H](C)c1ccccc1 (H-[Nlys][N(isopentyl)Gly][Nspe][Nlys][N(isopentyl)Gly][Nspe]-NH2) | > 100 µM | > 100 µM
26 | CCCN(CC(=O)N(CC(N)=O)[C@@H](C)c1ccccc1)C(=O)CN(CCCCN)C(=O)CN(C(=O)CN(CCC)C(=O)CNCCCCN)[C@@H](C)c1ccccc1 (H-[Nlys][NPrGly][Nspe][Nlys][NPrGly][Nspe]-NH2) | > 100 µM | > 100 µM
